According to patent publication US9844521B2, “Pharmaceutical composition comprising ginger extract or shogaol” (UNIVERSITY-INDUSTRY COOPERATION GROUP OF KYUNG HEE …, priority 2008, dated 2017):

How the values were obtained:
[1] = test system: rat primary mesencephalic dopaminergic cells; experiment: Protection of dopamine cells against MPP+ neurotoxicity (TH immunohistochemistry); format: cell-based; settings: 0.01 μM, 10 μM MPP+ for 23 hours; MPP+ group 44.25±7.61% of a control
Description: Female Sprague-Dawley rats (2-week old) were used, and shogaol was obtained from WAKO Company (Japan).
Fetal mesencephalon tissues of Sprague-Dawley rats […] were desquamated, and mechanically dissociated by using a forcept. The tissues were treated with trypsin and the number of cells was counted, and the cells were seeded on a cover slip coated with poly-L-lysine (PLL), and then proliferated in an incubator including 5% CO2 and 95% air at a temperature of 37 °C for 5 days. A fetal bovine serum (FBS)-free media was treated with 0.01 μM or 0.1 μM of shogaol after the shogaol was diluted, or the ginger extract (the ethanol extract, the hexane fraction, the ethyl acetate fraction, the butanolfraction, and the water fraction prepared according to Example 1) after the ginger extract was diluted. […]
Cells immobilized by using 4% PFA were washed with PBS and then, dehydrated with 1% hydrogen peroxide for 15 minutes. […] After the color-producing using DAB, a cover slip was separated and then mounted on a slide by using a gel mount and the number of cells was counted.
Cells were color-produced by immunohistochemistry in the same manner as Experimental Example 3-1, and the number of cells was counted and the results are shown in FIGS. 8 and 9.

[2] = test system: C57BL/6 mouse having MPTP-induced Parkinson's disease; experiment: Dopamine cell protective activity in striatum and substantia nigra (TH immunohistochemistry), MPTP model; format: in vivo; settings: 10 mg/kg oral once per day for 5 days, MPTP 30 mg/kg i.p., p<0.05 vs MPTP group
Description: Mice were divided into three groups, each of which consisted of 6 mice. A first group (control) and a second group (MPTP group) were orally administered once per day with 10% dimethyl sulfoxide in an amount of 5 ml per mouse weight kg for 5 days, and a third group (shogaol-administered group) was orally administered once per day with 10 mg/kg of shogaol dissolved in 10% dimethyl sulfoxide for 5 days. 2 hours after the oral administration, the first group (control) was intraperitoneally administered with saline in an amount of 5 ml per mouse weight kg for 5 days, and the second and third groups were intraperitoneally administered with 30 mg/kg of MPTP dissolved in saline for 5 days.
The mice of the respective groups were sacrificed after the pole test was completely performed, and brain tissues (striatum and substantia nigra) were isolated. […]
The mice of the respective groups were sacrificed after the pole test was completely performed, and brain tissues (striatum and substantia nigra) were isolated. Protection activity was evaluated using the isolated brain tissues in the same manner as in (1-2) above, and the results are shown in FIGS. 14 and 15. […]

ICR mice = experiment: Passive avoidance task (cognitive ability enhancement); format: in vivo, mouse; settings: 5 mg/kg oral once per day for 3 days; control 165.50±23.39 seconds; p<0.05
Description: Male ICR mice having a weight of 25-28 g were obtained and nurtured in an animal laboratory at Kyunghee University Graduate School of East-West Medicine Science for 7 days for adaptation. Water and feed were freely supplied, and the temperature (22±2[…]), humidity (53±3%), and a cycle of brightness and darkness (12 hours) were automatically controlled. Shogaol used was obtained from WAKO Company (Japan).
Mice were divided into two groups, each of which consisted of 10 mice. A first group (control) was orally administered with 10% dimethyl sulfoxide in an amount of 5 ml per mouse weight kg for 3 days, and a second group was orally administered with 5 mg/kg of shogaol dissolved in 10% dimethyl sulfoxide for 3 days. […]
In a test device having an inner structure divided into two identical spaces with a door therebetween, on a first day, one space was bright and the other space was dark, and a test animal was allowed to stay in the bright space for 10 seconds and then the door was opened, and when the test animal moved toward the dark space, 0.25 mA of an electrical stimulation was applied to the feet of the test animal. After 24 hours, the same passive avoidance task was performed and a time during which the test animal stayed in the light space was measured. […]

CCCCC/C=C/C(=O)CCc1ccc(O)c(OC)c1 [shogaol, (E)-1-(4-hydroxy-3-methoxyphenyl)dec-4-en-3-one]
number of dopamine positive cells [1]: 91.50±3.38% | number of TH positive cells in substantia nigra ([2]; of a control): 70.30±4.86 | optical density of striatum (TH immunoreactivity) [2]: 80.11±1.97 % of a control | latency time (ICR mice): 240.63 ± 24.14 s
